For data set [1], the system named is human cytomegalovirus (HCMV). Description: anti-HCMV screening test (cytopathogenic effect) in HELF cell cultures. In kind it is cell-based. As to conditions: Human betaherpesvirus 5; HCMV-infected HELF cells, 96-well plates; concentration giving 50% inhibition of virus activity (CPE, Neutral Red). The method, then: The anti-HCMV action was determined in a screening test system in 96-well microtitre plates with the assistance of human embryonic lung fibroblasts (HELF) cell cultures. The affect of these substances on the extent of the cytopathogenic effect was determined by comparison with the reference substance ganciclovir (Cymevene^R sodium), a clinically approved anti-HCMV chemotherapeutic agent (EC50, corresponding to the effective concentration at which a 50% inhibition of virus activity is achieved).
The substances dissolved (50 mM) in DMSO (dimethyl sulphoxide) are investigated on microtitre plates (96-well) in duplicate determinations (4 substances/plate). Toxic and cytostatic effects of the substances are also detected thereby (CC50, corresponding to the concentration at which half the cells are destroyed owing to administration of the substance). […]
After this time, the cell lawn in the virus controls free of substance, starting from 50-100 infectious centres, is completely destroyed by the cytopathogenic effect of the HCMV (100% CPE). After staining with Neutral Red and fixing with formalin/methanol, the plates are evaluated using a projection microscope (plaque viewer).
For orientation: Cytopathic effects are the visible damage that an infection or toxin causes in cultured cells.

Data set [2] can be described thus: toxic and cytostatic effects on HELF cells in the anti-HCMV screening test. Format: cell-based. To be noted: human, concentration at which half the cells are destroyed. The method, then: The substances dissolved (50 mM) in DMSO (dimethyl sulphoxide) are investigated on microtitre plates (96-well) in duplicate determinations (4 substances/plate). Toxic and cytostatic effects of the substances are also detected thereby (CC50, corresponding to the concentration at which half the cells are destroyed owing to administration of the substance). After the appropriate substance dilutions (1:2) on the microtitre plate, a suspension of 50-100 HCMV-infected HELF cells and […] uninfected HELF cells in Eagle's MEM with 10% fetal calf serum are put in each well, and the plates are incubated at 37° C. in a CO2 incubator for several days. After this time, the cell lawn in the virus controls free of substance, starting from 50-100 infectious centres, is completely destroyed by the cytopathogenic effect of the HCMV (100% CPE). After staining with Neutral Red and fixing with formalin/methanol, the plates are evaluated using a projection microscope (plaque viewer).

From patent US6498183B1, “Substituted indole sulfonamides as anitviral agents” (Bayer Aktiengesellschaft, priority 1999, dated 2002) come the findings set out here.

Usually EC50 stands for the concentration giving half of the maximal effect. The CC50 is the concentration giving 50% cytotoxicity. Read a high CC50 as better tolerance by the cells.

As for `CCn1ccc2cc(S(=O)(=O)Nc3cccc(NC(=O)C(C)(C)CF)c3)ccc21` [Example 1, N-[(N-Ethylindole)-5-sulphonyl]-N′-(3-fluoro-2,2-dimethylpropanoyl)-1,3-diamino-benzene], in data set [1], it took 0.055 µM to reach a half-maximal effect (EC50). Half-maximal cytotoxicity in data set [2] (CC50) was put at 15.6 µM.
The matching figures for `CC(=O)n1ccc2cc(S(=O)(=O)Nc3ccc(C(=O)NC(C)(C)C)cc3)ccc21` [Example 2, 4-[N-Acetylindole-5-sulphonylamino]-N-(tert-butyl)benzamide]: 0.39 µM and 86 µM.
